Our source for the activity coefficient values is the NIST ThermoML archive (doi:10.1016/j.jct.2016.07.021).

Numbers after ± are expanded uncertainties.

The data set can be described thus: activity coefficient (dimensionless); of the first substance listed, at infinite dilution; xn = mol fraction of the nth substance listed. Particulars: 101.33 kPa, Liquid, Chromatography, x1 = 0.

Consider `ClC(Cl)(Cl)Cl` [tetrachloromethane] + CCCCCCn1cc[n+](C)c1C.O=S(=O)([N-]S(=O)(=O)C(F)(F)F)C(F)(F)F, for which the activity coefficient (313.15 K) was determined as 2.31 ± 0.24; the activity coefficient (323.15 K) amounted to 2.26 ± 0.24; the activity coefficient (333.15 K) came to 2.19 ± 0.23; the activity coefficient (343.15 K) stood at 2.15 ± 0.23; the activity coefficient (353.15 K) amounted to 2.09 ± 0.22.
Turning to `CCCCCCC` [heptane] + CCCCCCn1cc[n+](C)c1C.O=S(=O)([N-]S(=O)(=O)C(F)(F)F)C(F)(F)F, the activity coefficient is 10.2 ± 1.1 (313.15 K); 9.79 ± 1 (323.15 K); 9.47 ± 1 (333.15 K); 9.2 ± 0.97 (343.15 K); 8.83 ± 0.93 (353.15 K).
Turning to `CCCCCC` [hexane] + CCCCCCn1cc[n+](C)c1C.O=S(=O)([N-]S(=O)(=O)C(F)(F)F)C(F)(F)F, the activity coefficient reads like this: (313.15 K) 7.6 ± 0.8; (323.15 K) 7.41 ± 0.78; (333.15 K) 7.16 ± 0.75; (343.15 K) 6.96 ± 0.73; (353.15 K) 6.78 ± 0.71.
On to `c1ccccc1` [benzene] + CCCCCCn1cc[n+](C)c1C.O=S(=O)([N-]S(=O)(=O)C(F)(F)F)C(F)(F)F, for which the activity coefficient reads like this: (313.15 K) 0.72 ± 0.08; (323.15 K) 0.72 ± 0.08; (333.15 K) 0.74 ± 0.08; (343.15 K) 0.75 ± 0.08; (353.15 K) 0.76 ± 0.08.
With `CCCCCCCC` [octane] + CCCCCCn1cc[n+](C)c1C.O=S(=O)([N-]S(=O)(=O)C(F)(F)F)C(F)(F)F, the activity coefficient was found to be 12.8 ± 1.4 (313.15 K); 11.7 ± 1.2 (323.15 K); 10.6 ± 1.1 (333.15 K); 9.82 ± 1 (343.15 K); 9.16 ± 0.96 (353.15 K).
Consider `CCCCCCCCCC` [decane] + CCCCCCn1cc[n+](C)c1C.O=S(=O)([N-]S(=O)(=O)C(F)(F)F)C(F)(F)F, for which the activity coefficient by setting is: (313.15 K) 26.8 ± 2.8; (323.15 K) 25 ± 2.6; (333.15 K) 23.3 ± 2.5; (343.15 K) 21.6 ± 2.3; (353.15 K) 20.1 ± 2.1.
The matching figures for `Cc1ccc(C)cc1` [1,4-dimethylbenzene] + CCCCCCn1cc[n+](C)c1C.O=S(=O)([N-]S(=O)(=O)C(F)(F)F)C(F)(F)F: 1.39 ± 0.14, 1.42 ± 0.15, 1.46 ± 0.15, 1.5 ± 0.16 and 1.55 ± 0.16.
The matching figures for `CCc1ccccc1` [ethylbenzene] + CCCCCCn1cc[n+](C)c1C.O=S(=O)([N-]S(=O)(=O)C(F)(F)F)C(F)(F)F: 1.34 ± 0.14, 1.36 ± 0.14, 1.38 ± 0.14, 1.4 ± 0.14 and 1.42 ± 0.15.
For `CC#N` [acetonitrile] + CCCCCCn1cc[n+](C)c1C.O=S(=O)([N-]S(=O)(=O)C(F)(F)F)C(F)(F)F, in that order: 0.45 ± 0.05, 0.46 ± 0.05, 0.47 ± 0.05, 0.48 ± 0.05 and 0.48 ± 0.05.
On to `CCCCCCCCC` [nonane] + CCCCCCn1cc[n+](C)c1C.O=S(=O)([N-]S(=O)(=O)C(F)(F)F)C(F)(F)F, for which the activity coefficient stood at 21.5 ± 2.3 (313.15 K); 19.8 ± 2.1 (323.15 K); 18.1 ± 1.9 (333.15 K); 16.6 ± 1.7 (343.15 K); 15.1 ± 1.6 (353.15 K).
The matching figures for `CC(C)=O` [acetone] + CCCCCCn1cc[n+](C)c1C.O=S(=O)([N-]S(=O)(=O)C(F)(F)F)C(F)(F)F: 0.4 ± 0.05, 0.42 ± 0.05, 0.43 ± 0.05, 0.45 ± 0.05 and 0.46 ± 0.05.
As to `CCCCC` [pentane] + CCCCCCn1cc[n+](C)c1C.O=S(=O)([N-]S(=O)(=O)C(F)(F)F)C(F)(F)F, the activity coefficient turned out to be 5.64 ± 0.59 (313.15 K); 5.55 ± 0.58 (323.15 K); 5.45 ± 0.57 (333.15 K); 5.33 ± 0.56 (343.15 K); 5.21 ± 0.55 (353.15 K).
In the case of `C1CCOC1` [tetrahydrofuran] + CCCCCCn1cc[n+](C)c1C.O=S(=O)([N-]S(=O)(=O)C(F)(F)F)C(F)(F)F, the activity coefficient is, setting by setting: (313.15 K) 0.5 ± 0.06; (323.15 K) 0.51 ± 0.06; (333.15 K) 0.53 ± 0.06; (343.15 K) 0.55 ± 0.06; (353.15 K) 0.58 ± 0.06.
For `CCOC(C)=O` [ethyl acetate] + CCCCCCn1cc[n+](C)c1C.O=S(=O)([N-]S(=O)(=O)C(F)(F)F)C(F)(F)F, in that order: 0.83 ± 0.09, 0.86 ± 0.09, 0.88 ± 0.09, 0.91 ± 0.09 and 0.93 ± 0.09.
For `ClC(Cl)Cl` [trichloromethane] + CCCCCCn1cc[n+](C)c1C.O=S(=O)([N-]S(=O)(=O)C(F)(F)F)C(F)(F)F, in that order: 0.77 ± 0.08, 0.78 ± 0.08, 0.79 ± 0.08, 0.81 ± 0.08 and 0.82 ± 0.08.
As to `CC1CCCCC1` [methylcyclohexane] + CCCCCCn1cc[n+](C)c1C.O=S(=O)([N-]S(=O)(=O)C(F)(F)F)C(F)(F)F, the activity coefficient by setting is: (313.15 K) 6.48 ± 0.68; (323.15 K) 6.26 ± 0.66; (333.15 K) 6.06 ± 0.64; (343.15 K) 5.81 ± 0.61; (353.15 K) 5.62 ± 0.59.
On to `C1=CCCCC1` [cyclohexene] + CCCCCCn1cc[n+](C)c1C.O=S(=O)([N-]S(=O)(=O)C(F)(F)F)C(F)(F)F, for which the activity coefficient is, setting by setting: (313.15 K) 3.36 ± 0.35; (323.15 K) 3.29 ± 0.35; (333.15 K) 3.19 ± 0.34; (343.15 K) 3.06 ± 0.32; (353.15 K) 2.93 ± 0.31.
On to `Cc1ccccc1C` [1,2-dimethylbenzene] + CCCCCCn1cc[n+](C)c1C.O=S(=O)([N-]S(=O)(=O)C(F)(F)F)C(F)(F)F, for which the activity coefficient by setting is: (313.15 K) 1.17 ± 0.12; (323.15 K) 1.19 ± 0.12; (333.15 K) 1.21 ± 0.12; (343.15 K) 1.22 ± 0.13; (353.15 K) 1.24 ± 0.13.
For `C1CCCCC1` [cyclohexane] + CCCCCCn1cc[n+](C)c1C.O=S(=O)([N-]S(=O)(=O)C(F)(F)F)C(F)(F)F, in that order: 5.33 ± 0.56, 5.14 ± 0.54, 4.99 ± 0.52, 4.88 ± 0.51 and 4.74 ± 0.5.
The matching figures for `ClCCl` [dichloromethane] + CCCCCCn1cc[n+](C)c1C.O=S(=O)([N-]S(=O)(=O)C(F)(F)F)C(F)(F)F: 0.74 ± 0.08, 0.73 ± 0.08, 0.72 ± 0.08, 0.71 ± 0.07 and 0.7 ± 0.07.
For `Cc1ccccc1` [toluene] + CCCCCCn1cc[n+](C)c1C.O=S(=O)([N-]S(=O)(=O)C(F)(F)F)C(F)(F)F, in that order: 0.96 ± 0.1, 0.99 ± 0.1, 1.01 ± 0.1, 1.03 ± 0.1 and 1.05 ± 0.11.
For `Cc1cccc(C)c1` [1,3-dimethylbenzene] + CCCCCCn1cc[n+](C)c1C.O=S(=O)([N-]S(=O)(=O)C(F)(F)F)C(F)(F)F, the activity coefficient runs as follows: (313.15 K) 1.34 ± 0.14; (323.15 K) 1.38 ± 0.14; (333.15 K) 1.41 ± 0.15; (343.15 K) 1.44 ± 0.15; (353.15 K) 1.47 ± 0.15.
